Data on one compound can be found in ChEMBL document CHEMBL1275501, “Plasmid-mediated quinolone resistance pump QepA2 in an Escherichia coli isolate from France” (2008).

Test [1] has as its system Escherichia coli. In words: Antimicrobial activity against Escherichia coli TOP10 harboring pQep plasmid carrying qepA2 gene by disk diffusion method in presence of beta-lactamase inhibitor Tazobactam. The format is functional.
The test system of test [2] is Escherichia coli. In words: Antimicrobial activity against Escherichia coli TOP10 by disk diffusion method in presence of beta-lactamase inhibitor Tazobactam. The format is functional.
Test [3] deals with Escherichia coli. In words: Antimicrobial activity against Escherichia coli TOP10 by disk diffusion method. The test is classed as functional.
The test system of test [4] is Escherichia coli. In words: Antimicrobial activity against azide-resistant Escherichia coli J53 harboring pCTX-M carrying blaCTX-M-15 and pQep plasmid carrying qepA2 gene by disk diffusion method. The format is functional.
Test [5] concerns Escherichia coli. In words: Antimicrobial activity against azide-resistant Escherichia coli J53 harboring pCTX-M carrying blaCTX-M-15 and pQep plasmid carrying qepA2 gene by disk diffusion method in presence of beta-lactamase inhibitor Tazobactam. The format is functional.
Test [6] relates to Escherichia coli. In words: Antimicrobial activity against azide-resistant Escherichia coli J53 by disk diffusion method. The test is classed as functional.
Test [7] deals with Escherichia coli. In words: Antimicrobial activity against azide-resistant Escherichia coli J53 harboring pCTX-M plasmid carrying blaCTX-M-15 gene by disk diffusion method. The format is functional.
Test [8] deals with Escherichia coli. In words: Antimicrobial activity against azide-resistant Escherichia coli J53 by disk diffusion method in presence of beta-lactamase inhibitor Tazobactam. The format is functional.
Test [9] deals with Escherichia coli. In words: Antimicrobial activity against Escherichia coli BicA expressing blaTEM-1, blaCTX-M-15 and qepA2 gene by disk diffusion method.
Test [10] concerns Escherichia coli. In words: Antimicrobial activity against azide-resistant Escherichia coli J53 harboring pCTX-M plasmid carrying blaCTX-M-15 gene by disk diffusion method in presence of beta-lactamase inhibitor Tazobactam. The format is functional.
The test system of test [11] is Escherichia coli. In words: Antimicrobial activity against Escherichia coli TOP10 harboring pQep plasmid carrying qepA2 gene by disk diffusion method. The format is functional.
The test system of test [12] is Escherichia coli. In words: Antimicrobial activity against Escherichia coli BicA expressing blaTEM-1, blaCTX-M-15 and qepA2 gene by disk diffusion method in presence of beta-lactamase inhibitor Tazobactam. The format is functional.

The structures appear in SMILES notation. In brackets after ≈: the same amount, converted by molar mass.

For the compound `CCN1CCN(C(=O)N[C@@H](C(=O)N[C@@H]2C(=O)N3[C@@H]2SC(C)(C)[C@@H]3C(=O)O)c2ccccc2)C(=O)C1=O` [PIPERACILLIN], the MIC was 2 µg/mL with Escherichia coli [1]; 1 µg/mL with Escherichia coli [2]; 2 µg/mL (≈ 3.86 µM) in the test on Escherichia coli [3]; greater than 256 µg/mL against Escherichia coli [4]; 2 µg/mL with Escherichia coli [5]; 2 µg/mL (≈ 3.86 µM) against Escherichia coli [6]. Besides, the MIC against Escherichia coli [7] was greater than 256 µg/mL; in the test on Escherichia coli [8] it was 1 µg/mL; against Escherichia coli [9], greater than 256 µg/mL; in the test with Escherichia coli [10] it was 2 µg/mL; against Escherichia coli [11], greater than 256 µg/mL; in the test on Escherichia coli [12], 4 µg/mL.
